Test system: α-synuclein cytotoxicity in M17-SYNwt cells
Test: α-synuclein cytotoxicity assay: LDH leakage from paraquat-treated M17-SYNwt neuroblastoma cells;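 note: paraquat at 32 mM co-added with compound, 40 h exposure, LDH activity released into the culture medium measured, references are DMSO-only cells and paraquat plus DMSO cells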
Settings: Homo sapiens, Neuroblastoma cell; for Emax: read-out: % Inhib.
Description: An α-synuclein expression plasmid was constructed by sub-cloning the NcoI/XhoI fragment from 212T-SYN(WT) (Griffioen et al., Biochem Biophys Acta (2006) 1762(3):312-318) containing the cDNA of human wild type α-synuclein correspondingly into a standard mammalian expression vector pcDNA3.1 (Invitrogen) resulting into the plasmid pcDNA3.1-SYNwt. Plasmids pcDNA3.1 and pcDNA3.1-SYNwt were transfected to human neuroblastoma cells (ATCC No. CRL-2267) and independent clonal lines with the plasmids stably integrated into the genome were selected. […] Over-expression of α-synuclein in M17-SYNwt cell lines was confirmed by Western analysis.
Due to the high levels of α-synuclein M17-SYNwt cells are exquisitely sensitivity to paraquat, a well-known risk factor of synuclein-dependent neuronal degeneration. In degenerated or dead cells lactate dehydrogenase (LDH) is leaked out of the cells into the extracellular environment due to a loss of plasma-membrane integrity. This principle was used to determine cytotoxicity by quantifying the level of leaked LDH into the growth medium.
The detailed method for determining α-synuclein cytotoxicity was as follows: From appropriate precultures of M17 and M17-SYN cells were seeded at 50,000 cells/cm^2 in Optimem Reduced Serum without phenol red (available from InVitrogen, Cat. 31985-047) supplemented with 5% fetal calf serum, 1 mM sodium pyruvate, 1× non-essential amino acids, 500 μg/ml G418 0,5× antibiotic/antimycotic. After 3 hours of incubation at 37° C./5% CO2 paraquat was added to the cells (final concentration of 32 mM), together with the test compound and the cells were further incubated for 40 hours. Subsequently, LDH activity was determined using Promega Cytotox 96 Non-Radioactive cytotoxicity assay, (Cat. G1780) according the instructions of the supplier.
In these experiments, the control group consisted of M17-SYNwt cells treated with DMSO, the untreated paraquat group consisted of M17-SYNwt cells treated with paraquat and DMSO, and the treated paraquat group consisted of M17-SYNwt cells treated with paraquat and the test compound dissolved in DMSO.

SMILES	EC50	Emax
CCC(C(=O)N1CCN(c2nc(Cc3ccc(F)cc3)ns2)CC1C)c1ccccc1 (stereo not shown) [compound 8, 1-(2-phenylbutanoyl)-4-[3-(4-fluorobenzyl)-1,2,4-thiadiazol-5-yl]-2-methylpiperazine]	1490 nM	71%
CC1CN(c2nc(Cc3ccc(F)cc3)ns2)CCN1C(=O)c1cccc(Br)c1 (stereo not shown) [compound 142, 1-(3-bromobenzoyl)-4-[3-(4-fluorobenzyl)-1,2,4-thiadiazol-5-yl]-2-methylpiperazine]	500 nM	72%
Cc1ccc(Cc2nsc(N3CCN(S(=O)(=O)c4ccc([N+](=O)[O-])cc4)C(C)C3)n2)cc1 (stereo not shown) [compound 71, 1-[4-nitrophenylsulfonyl]-4-[3-(4-methylbenzyl)-1,2,4-thiadiazol-5-yl]-2-methylpiperazine]	–	33%
O=C(Cc1ccccc1)NCCN1CCN(c2nc(Cc3ccc(F)cc3)ns2)CC1 [compound 108, 2-phenyl-N-{2-[4-[3-(4-fluorobenzyl)-1,2,4-thiadiazol-5-yl]piperazin-1-yl]ethyl}acetamide]	2060 nM	63%
COc1ccc(S(=O)(=O)NCCNc2nc(Cc3cccc(OC)c3)ns2)cc1 [compound 209, 1-N-[4-methoxyphenylsulfonyl]-N′-[3-(3-methoxybenzyl)-1,2,4-thiadiazol-5-yl]-ethane-1,2-diamine]	317 nM	100%
O=C(Cc1ccc(F)cc1)N1CCN(c2nc(Cc3ccc(F)cc3)ns2)CC1 [compound 2, 4-(4-fluorophenylacetyl),-1-[3-(4-fluorobenzyl)-1,2,4-thiadiazol-5-yl]piperazine]	250 nM	54%
Cc1ccc(Cc2nsc(N3CCN(C(=O)c4ccccc4)C(C)C3)n2)cc1 (stereo not shown) [compound 169, 1-benzoyl-4-[3-(4-methylbenzyl)-1,2,4-thiadiazol-5-yl]-2-methylpiperazine]	–	91%
Cc1ccc(Cc2nsc(N3CCN(C(=O)c4ccc(F)cc4)CC3)n2)cc1 [compound 160, 1-(4-fluorobenzoyl)-4-[3-(4-methylbenzyl)-1,2,4-thiadiazol-5-yl]piperazine]	2870 nM	88%
CCc1ccc(C(=O)N2CCN(c3nc(Cc4ccc(C)cc4)ns3)CC2C)cc1 (stereo not shown) [compound 147, 1-(4-ethylbenzoyl)-4-[3-(4-methylbenzyl)-1,2,4-thiadiazol-5-yl]-2-methylpiperazine]	840 nM	88%
CC1CN(c2nc(Cc3ccc(F)cc3)ns2)CCN1C(=O)Nc1ccc(F)cc1F (stereo not shown) [compound 23, N-(2,4-difluorophenyl)-4-[3-(4-fluorobenzyl)-1,2,4-thiadiazol-5-yl]-2-methylpiperazine-1-carboxamide]	940 nM	66%
COc1cccc(Cc2nsc(N3CCN(C(=O)c4ccc(C)cc4)C(C)C3)n2)c1 (stereo not shown) [compound 124, 1-(4-methylbenzoyl)-4-[3-(3-methoxybenzyl)-1,2,4-thiadiazol-5-yl]-2-methylpiperazine]	140 nM	57%
Cc1ccc(Cc2nsc(N3CCN(C(=O)c4ccccc4)CC3)n2)cc1 [compound 158, 1-benzoyl-4-[3-(4-methylbenzyl)-1,2,4-thiadiazol-5-yl]piperazine]	2100 nM	57%
CC1CN(c2nc(Cc3ccc(F)cc3)ns2)CCN1C(=O)Nc1cccc2ccccc12 (stereo not shown) [compound 25, N-1-naphtyl-4-[3-(4-fluorobenzyl)-1,2,4-thiadiazol-5-yl]-2-methylpiperazine-1-carboxamide]	1690 nM	97%
O=S(=O)(c1ccc2ccccc2c1)N1CCN(c2nc(Cc3ccc(Cl)cc3)ns2)CC1 [compound 52, 1-[2-naphtylsulfonyl]-4-[3-(4-chlorobenzyl)-1,2,4-thiadiazol-5-yl]piperazine]	100 nM	104%
COc1cccc(Cc2nsc(N3CCN(C(=O)c4ccc(Br)cc4)C(C)C3)n2)c1 (stereo not shown) [compound 170, 1-(4-bromobenzoyl)-4-[3-(3-methoxybenzyl)-1,2,4-thiadiazol-5-yl]-2-methylpiperazine]	–	89%
Cc1ccc(Cc2nsc(N3CCN(C(=O)c4ccc(C(F)(F)F)cc4)CC3)n2)cc1 [compound 171, 1-(4-trifluoromethylbenzoyl)-4-[3-(4-methylbenzyl)-1,2,4-thiadiazol-5-yl]piperazine]	–	86%
CC1CN(c2nc(Cc3ccc(F)cc3)ns2)CCN1C(=O)c1ccc(F)cc1 (stereo not shown) [compound 127, 1-(4-fluorobenzoyl)-4-[3-(4-fluorobenzyl)-1,2,4-thiadiazol-5-yl]-2-methylpiperazine]	230 nM	108%
Fc1ccc(Cc2nsc(N3CCN(C/C=C/c4ccccc4)CC3)n2)cc1 [compound 93, 1-[3-phenylprop-2-enyl]-4-[3-(4-fluorobenzyl)-1,2,4-thiadiazol-5-yl]piperazine]	1990 nM	91%
Cc1ccc(S(=O)(=O)N2CCN(c3nc(Cc4ccc(Cl)cc4)ns3)CC2)cc1 [compound 63, 1-[4-methylphenylsulfonyl]-4-[3-(4-chlorobenzyl)-1,2,4-thiadiazol-5-yl]piperazine]	80.7 nM	83%

SMILES	EC50	Emax
O=C(c1ccc(Cl)cc1)N1CCCN(c2nc(Cc3ccc(F)cc3)ns2)CC1 [compound 189, 1-(4-chlorobenzoyl)-4-[3-(4-fluorobenzyl)-1,2,4-thiadiazol-5-yl]-1,4-diazepane]	170 nM	85%
O=C(NCCN1CCN(c2nc(Cc3ccc(Cl)cc3)ns2)CC1)c1cccc(F)c1 [compound 100, 3-fluoro-N-{2-[4-[3-(4-chlorobenzyl)-1,2,4-thiadiazol-5-yl]piperazin-1-yl]ethyl}benzamide]	1790 nM	75%
COc1ccc(S(=O)(=O)N2CCN(c3nc(Cc4ccc(Cl)cc4)ns3)CC2C)cc1 (stereo not shown) [compound 51, 1-[4-methoxyphenylsulfonyl]-4-[3-(4-chlorobenzyl)-1,2,4-thiadiazol-5-yl]-2-methylpiperazine]	1.35 nM	94%
CC1CN(c2nc(Cc3ccc(F)cc3)ns2)CCN1C(=O)CCc1ccccc1 (stereo not shown) [compound 89, 1-(3-phenylpropanoyl)-4-[3-(4-fluorobenzyl)-1,2,4-thiadiazol-5-yl]-2-methylpiperazine]	600 nM	86%
CCCCc1ccc(C(=O)N2CCN(c3nc(Cc4ccc(C)cc4)ns3)CC2)cc1 [compound 182, 1-(4-butylbenzoyl)-4-[3-(4-methylbenzyl)-1,2,4-thiadiazol-5-yl]piperazine]	–	57%
CCc1ccc(C(=O)N2CCN(c3nc(Cc4cccc(OC)c4)ns3)CC2C)cc1 (stereo not shown) [compound 143, 1-(4-ethylbenzoyl)-4-[3-(3-methoxybenzyl)-1,2,4-thiadiazol-5-yl]-2-methylpiperazine]	560 nM	89%
CC1CN(c2nc(Cc3ccc(F)cc3)ns2)CCN1C(=O)c1ccc(C(C)(C)C)cc1 (stereo not shown) [compound 128, 1-(4-tert-butylbenzoyl)-4-[3-(4-fluorobenzyl)-1,2,4-thiadiazol-5-yl]-2-methylpiperazine]	240 nM	95%
CC(=O)Nc1ccc(S(=O)(=O)N2CCN(c3nc(Cc4ccc(F)cc4)ns3)CC2C)cc1 (stereo not shown) [compound 55, 1-[4-acetamidophenylsulfonyl]-4-[3-(4-fluorobenzyl)-1,2,4-thiadiazol-5-yl]-2-methylpiperazine]	78.1 nM	114%
CC1CN(c2nc(Cc3ccc(Cl)cc3)ns2)CCN1C(=O)c1cccc(F)c1 (stereo not shown) [compound 125, 1-(3-fluorobenzoyl)-4-[3-(4-chlorobenzyl)-1,2,4-thiadiazol-5-yl]-2-methylpiperazine]	160 nM	68%
COc1ccc(C(=O)N2CCN(c3nc(Cc4ccc(F)cc4)ns3)CC2C)c(OC)c1 (stereo not shown) [compound 136, 1-(2,4-dimethoxybenzoyl)-4-[3-(4-fluorobenzyl)-1,2,4-thiadiazol-5-yl]-2-methylpiperazine]	340 nM	83%
Cc1cccc(C)c1NC(=O)N1CCN(c2nc(Cc3ccc(F)cc3)ns2)CC1 [compound 24, N-(2,6-dimethylphenyl)-4-[3-(4-fluorobenzyl)-1,2,4-thiadiazol-5-yl]piperazine-1-carboxamide]	1200 nM	124%
Cc1ccc(Cc2nsc(N3CCN(S(=O)(=O)c4c(C)cc(C)cc4C)C(C)C3)n2)cc1 (stereo not shown) [compound 45, 1-[2,4,6-trimethylphenylsulfonyl]-4-[3-(4-methylbenzyl)-1,2,4-thiadiazol-5-yl]-2-methylpiperazine]	1200 nM	56%
COc1ccccc1S(=O)(=O)N1CCN(c2nc(Cc3ccc(F)cc3)ns2)CC1 [compound 195]	56.7 nM	99%
CC(C)(C)c1ccc(S(=O)(=O)N2CCN(c3nc(Cc4ccc(F)cc4)ns3)CC2)cc1 [compound 30, 1-[4-tert-butylphenylsulfonyl]-4-[3-(4-fluorobenzyl)-1,2,4-thiadiazol-5-yl]piperazine]	–	51%
CCc1ccc(C(=O)N2CCN(c3nc(Cc4ccc(Cl)cc4)ns3)CC2)cc1 [compound 165, 1-(4-ethylbenzoyl)-4-[3-(4-chlorobenzyl)-1,2,4-thiadiazol-5-yl]piperazine]	–	133%
COc1ccc(S(=O)(=O)N2CCN(c3nc(Cc4cccc(OC)c4)ns3)CC2C)cc1 (stereo not shown) [compound 208, 1-[4-methoxyphenylsulfonyl]-4-[3-(3-methoxybenzyl)-1,2,4-thiadiazol-5-yl]-2-methyl-piperazine]	7.3 nM	–
CC1CN(c2nc(Cc3ccc(F)cc3)ns2)CCN1C(=O)Nc1ccc(F)c(F)c1 (stereo not shown) [compound 26, N-(3,4-difluorophenyl)-4-[3-(4-fluorobenzyl)-1,2,4-thiadiazol-5-yl]-2-methylpiperazine-1-carboxamide]	–	70%
Cc1ccc(Cc2nsc(N3CCN(S(=O)(=O)c4ccc(F)cc4)CC3)n2)cc1 [compound 57, 1-[4-fluorophenylsulfonyl]-4-[3-(4-methylbenzyl)-1,2,4-thiadiazol-5-yl]piperazine]	10.4 nM	88%
COc1ccc(CC(=O)N2CCN(c3nc(Cc4ccc(F)cc4)ns3)CC2C)cc1 (stereo not shown) [compound 4, 1-(4-methoxyphenylacetyl)-4-[3-(4-fluorobenzyl)-1,2,4-thiadiazol-5-yl]-2-methylpiperazine]	820 nM	56%

— patent US7960556B2, “Thiadiazole derivatives for the treatment of neuro-degenerative diseases” (NV reMYND, priority 2006, dated 2011)
